# Results from patent publication US20240158348A1, “HERBICIDAL CYCLIC AMIDES N-SUBSTITUTED WITH A HALOALKYLSULFONYLANILIDE GROUP” (FMC Corporation, priority 2021, published 2024).
# Assays:
# Format in all cases: in vivo
# [1] = tested on: foxtail, giant (giant foxtail, Setaria faberi); assay: Test C preemergence, giant foxtail; conditions: 0 is no effect, 100 is complete control
# How it was run: (§1)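 Visual injury rating, 0 (no effect) to 100 (complete control), versus untreated controls after 10 or 12 days in the greenhouse. Compounds were formulated in non-phytotoxic solvent plus surfactant and applied either as a directed soil spray at sowing or onto emerged one- to two-leaf plants.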
# [2] = tested on: pigweed, palmer (palmer amaranth, Amaranthus palmeri); assay: Test C preemergence, palmer amaranth; conditions: 0 is no effect, 100 is complete control
# How it was run: as §1
# [3] = tested on: ragweed (common ragweed, Ambrosia artemisiifolia); assay: Test C preemergence, ragweed; conditions: 0 is no effect, 100 is complete control
# How it was run: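 Ratings run from 0, meaning no effect, up to 100, meaning complete control, judged by eye against untreated plants. Treatment was a directed soil spray before emergence or a postemergence spray on 2–10 cm seedlings, with evaluation 10 or 12 days later.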
# [4] = tested on: blackgrass (Alopecurus myosuroides); assay: Test C postemergence, blackgrass; conditions: visual injury, 0 to 100 scale (0 no effect, 100 complete control)
# How it was run: as §1
# soybean (Glycine max) = assay: Test C postemergence, soybean; conditions: visual injury, 0 to 100 scale (0 no effect, 100 complete control)
# [5] = tested on: wheat (Triticum aestivum); assay: Test C postemergence, wheat; conditions: visual injury, 0 to 100 scale (0 no effect, 100 complete control)
# How it was run: as §1
# [6] = tested on: galium (catchweed bedstraw, Galium aparine); assay: Test C postemergence, galium; conditions: for Galium plant response rating: visual injury, 0 to 100 scale (0 no effect, 100 complete control); for Plant response rating (0 to 100 scale), Galium: 0 is no effect, 100 is complete control
# [7] = tested on: barnyardgrass (Echinochloa crusgalli); assay: Test D flooded paddy test, barnyardgrass; set-up: key: 0 = no effect, 100 = complete control; conditions: 250 g ai/ha, Flood; applied to paddy water at 2-leaf stage; visual rating after 13 days; scale 0 (no effect) to 100 (complete control)
# How it was run: (§2)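 Under 3 cm of standing water, kept constant after treatment, 2-leaf plants received compound via the paddy water. Ratings on a 0–100 control scale were assigned visually after 13 greenhouse days; a dash denotes no test result.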
# [8] = tested on: ducksalad (Heteranthera limosa); assay: Test D flooded paddy test, ducksalad; set-up: key: 0 = no effect, 100 = complete control; conditions: 250 g ai/ha, Flood; applied to paddy water at 2-leaf stage; visual rating after 13 days; scale 0 (no effect) to 100 (complete control)
# How it was run: as §2
# rice (Oryza sativa) = assay: Test D flooded paddy test, rice; set-up: key: 0 = no effect, 100 = complete control; conditions: 250 g ai/ha, Flood; applied to paddy water at 2-leaf stage; visual rating after 13 days; scale 0 (no effect) to 100 (complete control)
# How it was run: as §2
SMILES,"Plant response rating (0 to 100 scale), Foxtail, Giant ([1]; 31 g ai/ha Preemergence)","Plant response rating (0 to 100 scale), Foxtail, Giant ([1]; 125 g ai/ha Preemergence)","Plant response rating (0 to 100 scale), Pigweed, Palmer ([2]; 31 g ai/ha Preemergence)","Plant response rating (0 to 100 scale), Pigweed, Palmer ([2]; 125 g ai/ha Preemergence)","Plant response rating (0 to 100 scale), Ragweed ([3]; 31 g ai/ha Preemergence)","Plant response rating (0 to 100 scale), Ragweed ([3]; 125 g ai/ha Preemergence)",Blackgrass plant response rating ([4]; 31 g ai/ha Postemergence),Soybean plant response rating (soybean (Glycine max); 31 g ai/ha Postemergence),Soybean plant response rating (soybean (Glycine max); 125 g ai/ha Postemergence),Wheat plant response rating ([5]; 31 g ai/ha Postemergence),Wheat plant response rating ([5]; 125 g ai/ha Postemergence),Galium plant response rating ([6]; 31 g ai/ha Postemergence),"Plant response rating (0 to 100 scale), Galium ([6]; 125 g ai/ha Postemergence)","Plant response rating, Barnyardgrass [7]","Plant response rating, Ducksalad [8]","Plant response rating, Rice (rice (Oryza sativa))",Blackgrass plant response rating ([4]; 125 g ai/ha Postemergence),Galium plant response rating ([6]; 125 g ai/ha Postemergence)
Cc1c(N2CCCC(OC3CCC3)C2=O)cc(N(COC(=O)C(C)(C)C)S(=O)(=O)C(F)(F)F)c(C)c1F (stereo not drawn) [Compound 39],0,10,0,40,0,80,0,50,90,0,60,80,90,35,55,0,,
COC(=O)N(c1cc(N2CCC(OC3CC3)C2=O)c(C)cc1Cl)S(=O)(=O)C(F)(F)F (stereo not drawn) [Compound 40],100,100,80,100,70,90,10,70,80,60,70,80,100,0,70,0,,
Cc1cc(C)c(N2CCC(OCC3CC3(F)F)C2=O)cc1NS(=O)(=O)C(F)(F)F (stereo not drawn) [Compound 41],100,100,100,100,70,90,40,90,90,60,60,100,,15,60,10,60,100
Cc1cc(C)c(N2CCC(OCC3CCCO3)C2=O)cc1NS(=O)(=O)C(F)(F)F (stereo not drawn) [Compound 42],20,100,80,100,10,60,0,70,80,0,80,50,,0,95,15,50,90
